Measurements taken from patent US20240115654A1, “INTRAVENOUS ADMINISTRATION OF ENGINEERED ANTIMICROBIAL AMPHIPHILIC PEPTIDES” (priority 2021, published 2024).
Read-outs that look alike come from different tables or passages of the source. Peptide text beside a SMILES is read from it.

Description: All subjects who met eligibility criteria were confined to the clinical research unit from […] through Day 3. At admission, physical examination, vital signs, 12 lead ECG and weight were obtained, medical and medication history were updated if necessary, safety blood tests (hematology and chemistry), urinalysis, urine drug screen and an alcohol breath test were repeated and a urine pregnancy test was done for women of childbearing potential.
At each dose level, there were 2 sentinel subjects, (1 active, 1 placebo), who were dosed at least 48 hours in advance of the other subjects in their respective group. Following review of safety data, including physical examination, vital signs, and review of adverse events from the first 2 subjects, enrolment in the cohort continued.
A 12-lead ECG was performed on Day 1, within 60 minutes of infusion start (in triplicate), mid-way through the infusion, at the completion of the infusion, 30 minutes after completion of the infusion and at various timepoints following the end of the infusion.
Vital signs were recorded within 60 minutes pre-dose, at the mid-point of the infusion and post dose vitals were assessed at completion of the infusion, 0.5, 1, 2, 3, 4, 6, 9, 12, 24 and 48 hours post dose, after at least 3 minutes of rest in supine position.
Subjects returned to the study center 7 days after dosing, for the termination visit. A full physical examination, vital signs and weight were obtained, concomitant medications were updated if necessary, safety blood specimens (haematology and chemistry, PT and aPTT) and urine were collected for urinalysis and urine drug screening. A serum pregnancy test was done for women of childbearing potential and a 12-lead ECG was performed.
In this study dose limiting toxicity (DLT) was defined as any drug related ≥Grade 3 AEs occurring despite optimal therapeutic interventions (which included but were not limited to allergic/hypersensitivity reactions, dermatological reactions/infusion site reactions, haematological toxicities such as neutropenia, thrombocytopenia and anaemia and clinical chemistry abnormalities) experienced up to Day 7 (Termination Visit).
(§1) All subjects who received any amount of study drug were included in the safety analysis (Safety population).
The study was a double blinded, randomized, placebo-controlled study. The placebo administered was 0.9% sodium chloride.
On Day 1 (day of dosing), subjects were randomly assigned either peptide IV or Placebo IV. At each dose level, there were 2 sentinel subjects, (1 active, 1 placebo), who were dosed at least 48 hours in advance of the other subjects in their respective group. Following review of safety data, including physical examination, vital signs, and review of adverse events from the first 2 subjects, enrolment in the cohort continued. All subjects who met eligibility criteria were confined to the clinical research unit from Day −2 through Day 3. At admission, physical examination, vital signs, 12 lead ECG and weight were obtained, medical and medication history were updated if necessary, safety blood tests (hematology and chemistry), urinalysis, urine drug screen and an alcohol breath test were repeated and a urine pregnancy test was done for women of childbearing potential.
as §1

[1] = Cohort 4: 0.5 mg/kg IV 2-hr infusion (N = 6)
[2] = Cohort 4: 0.5 mg/kg IV 2 hr infusion, subject 001-S086
[3] = Cohort 4: 0.5 mg/kg IV 2 hr infusion, subject 001-S093
[4] = Cohort 4: 0.5 mg/kg IV 2 hr infusion, subject 001-S094
[5] = Cohort 5 1 mg/kg IV 4-hr infusion, participant 001-S119
[6] = Cohort 5 1 mg/kg IV 4-hr infusion, participant 001-S127
[7] = Cohort 5: 1 mg/kg IV 4-hr infusion (N = 6)

CC(C)[C@H](NC(=O)[C@H](Cc1c[nH]c2ccccc12)NC(=O)[C@H](CCCNC(=N)N)NC(=O)[C@H](CCCNC(=N)N)NC(=O)[C@@H](NC(=O)[C@@H](NC(=O)[C@H](CCCNC(=N)N)NC(=O)[C@@H](NC(=O)[C@@H](NC(=O)[C@H](CCCNC(=N)N)NC(=O)[C@H](CCCNC(=N)N)NC(=O)[C@H](Cc1c[nH]c2ccccc12)NC(=O)[C@@H](NC(=O)[C@H](CCCNC(=N)N)NC(=O)[C@H](CCCNC(=N)N)NC(=O)[C@@H](NC(=O)[C@H](CCCNC(=N)N)NC(=O)[C@H](CCCNC(=N)N)NC(=O)[C@@H](NC(=O)[C@H](Cc1c[nH]c2ccccc12)NC(=O)[C@H](CCCNC(=N)N)NC(=O)[C@@H](N)CCCNC(=N)N)C(C)C)C(C)C)C(C)C)C(C)C)C(C)C)C(C)C)C(C)C)C(=O)N[C@@H](CCCNC(=N)N)C(=O)N[C@@H](CCCNC(=N)N)C(N)=O [SEQ ID NO: 1] (H-RRWVRRVRRVWRRVVRVVRRWVRR-NH2)
Day 1/12 hours: Infusion related reaction: End Date/Time [3]
Day 1/2 hours: Infusion related reaction: End Date/Time [4]
Right arm cannula: Infusion related reaction: Event [4]
20: One TEAE, m [7] | Participants With At Least 1 TEAE, occurrences m [7]
9: IRRs, events (Cohort 5, 1 mg/kg over 4 hours in 250 mL, 6 participants, all Grade 1) | TEAE by system organ class: General Disorders and Administration Site Conditions, occurrences m [7]
0: Treatment-related TEAE: Skin and Subcutaneous Tissue Disorders, participants n (%) [1] | Treatment-related TEAE: Thrombocytopenia, participants n (%) [1] | Treatment-related TEAE: Vascular Disorders, participants n (%) [1] | Treatment-related TEAE: Vessel puncture site erythema, participants n (%) [1] | Treatment-related TEAE: Vomiting, participants n (%) [1] | Number of Participants Reporting at least: Onc TEAE Leading to Study Withdrawal, n (%) [7] | Number of Participants Reporting at least: One Dose-Limiting Toxicity, n (%) [7] | Number of Participants Reporting at least: One Serious TEAE, n (%) [7] | Number of Participants Reporting at least: One TEAE Leading to Study Drug Discontinuation, n (%) [7] | Number of Participants Reporting at least: One TEAE with Common Terminology Criteria for Adverse Events (CTCAE) Toxicity ≥ Grade 3, n (%) [7] | TEAE by system organ class: Blood and Lymphatic System Disorders, participants n (%) [7] | TEAE by system organ class: Infections and Infestations, participants n (%) [7] | TEAE by system organ class: Respiratory, Thoracic, and Mediastinal disorders, participants n (%) [7] | TEAE by system organ class: Vascular Disorders, participants n (%) [7] | TEAE severity Grade 3, participants n (%) [7] | TEAE severity Grade 4, participants n (%) [7] | TEAE severity Grade 5, participants n (%) [7] | Treatment-related TEAE: Abdominal distension, participants n (%) [7]
11: One Related TEAE, m [7] | Participants With At Least 1 Treatment-Related TEAE, occurrences m [7]
5: TEAE by system organ class: Injury, Poisoning, and Procedural Complications, occurrences m [7]
1 (16.7%): Treatment-related TEAE: Vessel puncture site pain, participants n (%) [1] | TEAE Severity Grade 2, n (%) [7] | TEAE by system organ class: Gastrointestinal Disorders, participants n (%) [7] | TEAE by system organ class: Musculoskeletal and Connective Tissue Disorders, participants n (%) [7] | TEAE severity Grade 2, participants n (%) [7]
Grade 1: Infusion related reaction: Severity Grade [2] | Infusion related reaction: Severity Grade [3] | Infusion related reaction: Severity Grade [4] | Severity of event: Localized IRR, Right arm (Cohort 5 1 mg/kg IV 4-hr infusion, participant 001-S113) | Severity of event: Localized IRR, Left arm (Cohort 5 1 mg/kg IV 4-hr infusion, participant 001-S117) | Severity of event: Lightheadedness [5] | Severity of event: Localized IRR, Left arm [5] | Severity of event: Pain at dosing site, Left arm (Cohort 5 1 mg/kg IV 4-hr infusion, participant 001-S120) | Severity of event: Localized IRR, Left arm (Cohort 5 1 mg/kg IV 4-hr infusion, participant 001-S122) | Severity of event: IRR, Right arm; pain in region of right biceps muscle [6] | Severity of event: Right-sided headache [6]
Myalgia: Infusion related reaction: Event (Cohort 4: 0.5 mg/kg IV 2 hr infusion, subject 001-S086, 0.5 mg/kg)
Day 1/1 hour: Infusion related reaction: Start Date/Time [2]
1: Treatment-related TEAE: Vessel puncture site pain, occurrences m [1] | TEAE Severity Grade 2, m [7] | TEAE by system organ class: Gastrointestinal Disorders, occurrences m [7] | TEAE by system organ class: Musculoskeletal and Connective Tissue Disorders, occurrences m [7] | TEAE severity Grade 2, occurrences m [7]
2 (33.3%): TEAE by system organ class: Nervous System Disorders, participants n (%) [7] | TEAE by system organ class: Skin and Subcutaneous Tissue Disorders, participants n (%) [7]
2: TEAE by system organ class: Nervous System Disorders, occurrences m [7] | TEAE by system organ class: Skin and Subcutaneous Tissue Disorders, occurrences m [7]
4 (66.7%): TEAE by system organ class: Injury, Poisoning, and Procedural Complications, participants n (%) [7]
End of Study: Infusion related reaction: End Date/Time [2]
6 (100%): Number of Participants Reporting at least: One Related TEAE, n (%) [7] | Number of Participants Reporting at least: One TEAE, n (%) [7] | Participants With At Least 1 TEAE, n (%) [7] | Participants With At Least 1 Treatment-Related TEAE, n (%) [7] | TEAE Severity Grade 1, n (%) [7] | TEAE by system organ class: General Disorders and Administration Site Conditions, participants n (%) [7] | TEAE severity Grade 1, participants n (%) [7]
19: TEAE Severity Grade 1, m [7] | TEAE severity Grade 1, occurrences m [7]
Discomfort at right: Infusion related reaction: Event [3]
